Experiments:
[1] = logP determination by HPLC on a reversed-phase column (C18), EEC Directive 79/831 Annex V.A8; format: physicochemical
Experimental: (§1) ^a) Note regarding the determination of the logP values and mass detection: The determination of the given logP values was carried out in accordance with EEC Directive 79/831 Annex V.A8 by HPLC (High Performance Liquid Chromatography) on a reversed-phase column (C18). Agilent 1100 LC system; 50*4.6 Zorbax Eclipse Plus C18 1.8 micron; mobile phase A: acetonitrile (0.1% formic acid); mobile phase B: water (0.09% formic acid); linear gradient from 10% acetonitrile to 95% acetonitrile in 4.25 min, then 95% acetonitrile for a further 1.25 min; oven temperature 55° C.; flow rate: 2.0 ml/min. Mass detection is carried out via an Agilend MSD system.
as §1, with “^*)” for “^a)”

[2] = system: larvae of the mustard beetle (Phaedon cochleariae); assay: Phaedon cochleariae spray test (PHAECO); format: in vivo; conditions: Chinese cabbage leaf discs, after 7 days
Experimental: H. Phaedon cochleariae-spray Test (PHAECO)
Solvents: 78.0 parts by weight of acetone
(§2) • 1.5 parts by weight of dimethylformamide Emulsifier: alkylaryl polyglycol ether
(§3) To produce a suitable preparation of active compound, 1 part by weight of active compound is dissolved using the stated parts by weight of solvent and made up with water comprising an emulsifier concentration of 1000 ppm until the desired concentration is reached. To produce further test concentrations, the preparation is diluted with emulsifier-containing water.
After 7 days, the efficacy in % is determined. 100% means that all of the beetle larvae have been killed; 0% means that none of the beetle larvae have been killed.

[3] = system: caterpillars of the armyworm (Spodoptera frugiperda); assay: Spodoptera frugiperda spray test (SPODFR); format: in vivo; conditions: maize leaf discs, after 7 days
Experimental: I. Spodoptera frugiperda-spray Test (SPODFR)
(§4) Solvent: 78.0 parts by weight of acetone
as §2, §3
Leaf discs of maize (Zea mays) are sprayed with an active compound preparation of the desired concentration and, after drying, populated with caterpillars of the armyworm (Spodoptera frugiperda).
After 7 days, the efficacy in % is determined. 100% means that all of the caterpillars have been killed; 0% means that none of the caterpillars have been killed.

[4] = system: greenhouse red spider mite (Tetranychus urticae); assay: Tetranychus urticae spray test, OP-resistant (TETRUR); format: in vivo; conditions: bean leaf discs, after 6 days
Experimental: J. Tetranychus urticae-spray Test, OP-Resistant (TETRUR)
as §4, §2, §3
Discs of bean leaves (Phaseolus vulgaris) which are infested by all stages of the greenhouse red spider mite (Tetranychus urticae) are sprayed with an active compound preparation of the desired concentration.
After 6 days, the efficacy in % is determined. 100% means that all of the spider mites have been killed; 0% means that none of the spider mites have been killed.

[5] = system: adult cat fleas (Ctenocephalides felis); assay: Ctenocephalides felis in vitro contact test with adult cat fleas (T1); conditions: after 48 h
Experimental: T1. Ctenocephalides felis—in vitro Contact Tests with Adult Cat Fleas
For the coating of the test tubes, initially 9 mg of active compound are dissolved in 1 ml of acetone p.a. and then diluted with acetone p.a. to the desired concentration. By turning and rocking on an orbital shaker (2 h of rocking rotation at 30 rpm), 250 μl of the solution are distributed homogeneously on the internal walls and the floor of a 25 ml test tube. At 900 ppm active compound solution and 44.7 cm^2 internal surface, an area dose of 5 μg/cm^2 is achieved for homogeneous distribution.
After evaporation of the solvent, the tubes are populated with 5-10 adult cat fleas (Ctenocephalides felis), sealed with a perforated plastic lid and incubated in a horizontal position at room temperature and ambient humidity. After 48 h, the efficacy is determined. To this end, the test tubes are stood upright and the fleas are knocked to the floor of the tube. Fleas which remain motionless on the floor or move in an uncoordinated manner are considered to be dead or moribund.
An efficacy of 100% means that all fleas were dead or moribund. 0% efficacy means that none of the fleas had been damaged.

[6] = HPLC on reversed-phase column (C18), acetonitrile/water with formic acid, EEC Directive 79/831 Annex V.A8
[7] = HPLC, reversed-phase C18, acetonitrile (0.1% formic acid)/water (0.09% formic acid) gradient

## Cn1nc(C(F)(F)F)c(C(F)(F)F)c1-n1cc(-c2ccc(Cl)c(C(=O)Nc3ccccc3)c2)cn1 [Ic-135]
[1]; [6]
  logP: 4.1
[2]; application rate 100 g/ha
  efficacy in %: 83%
[3]; application rate 100 g/ha
  efficacy in %: 100%
[4]; application rate 100 g/ha
  efficacy in %: 100%

## Cn1nc(C(F)(F)C(F)(F)F)c(C(F)(F)F)c1-n1cc(-c2ccc(Cl)c(C(=O)NC3(C#N)CC3)c2)c(N)n1 [Ic-191]
[1]; [6]
  logP: 3.3
[2]; application rate 100 g/ha
  efficacy in %: 100%

## CCOC1(NC(=O)c2cc(-c3cnn(-c4c(C(F)(F)F)c(C(F)(F)C(F)(F)F)nn4C)c3)ccc2Cl)CC1 [Ic-176]
[1]; [6]
  logP: 4.08
[2]; application rate 500 g/ha
  efficacy in %: 100%
[3]; application rate 500 g/ha
  efficacy in %: 100%
[4]; application rate 500 g/ha
  efficacy in %: 100%

## CSC1CCC1NC(=O)c1cc(-c2cnn(-c3c(C(F)(F)F)c(C(F)(F)C(F)(F)F)nn3C)c2)ccc1Cl (centres unmarked) [Ic-119]
[1]; [6]
  logP: 4.52
[2]; application rate 100 g/ha
  efficacy in %: 100%
[3]; application rate 100 g/ha
  efficacy in %: 83%
[4]; application rate 100 g/ha
  efficacy in %: 100%

## Cc1nn(-c2c(C(F)(F)F)c(C(F)(F)C(F)(F)F)nn2C)c(C)c1-c1ccc(Cl)c(C(=O)NC2CC2)c1 [Ic-9]
[1]; [6]
  logP: 4.02
[4]; application rate 100 g/ha
  efficacy in %: 90%

## CON=Cc1c(C(F)(F)F)nn(C)c1-n1cc(-c2ccc(Cl)c(C(=O)NC3CC3)c2)cn1 (mixture of isomers) [Ic-51]
[1]; [6]
  logP: 3.15
[2]; application rate 500 g/ha
  efficacy in %: 100%

## Cn1nc(C(F)(F)F)c(C(F)(F)F)c1-n1cc(-c2ccc(Cl)c(C(=O)NCCF)c2)cn1 [Ic-168]
[1]; [6]
  logP: 3.24
[2]; application rate 100 g/ha
  efficacy in %: 100%
[3]; application rate 100 g/ha
  efficacy in %: 83%
[4]; application rate 100 g/ha
  efficacy in %: 100%

## CCOC1C(C)C1NC(=O)c1cc(-c2cnn(-c3c(C(F)(F)F)c(C(F)(F)C(F)(F)F)nn3C)c2)ccc1Cl (centres unmarked) [Ic-183]
[1]; [6]
  logP: 4.34
[2]; application rate 500 g/ha
  efficacy in %: 100%
[3]; application rate 500 g/ha
  efficacy in %: 100%
[4]; application rate 500 g/ha
  efficacy in %: 100%

## Cn1nc(C(F)(F)C(F)(F)F)c(C(F)(F)F)c1-n1cc(-c2ccc([S+](C)[O-])c(C(=O)NC3CC3)c2)cn1 (centres unmarked) [Ic-189]
[1]; [6]
  logP: 3.19
[2]; application rate 100 g/ha
  efficacy in %: 100%
[4]; application rate 100 g/ha
  efficacy in %: 100%

## Cn1nc(C(F)(F)C(F)(F)F)c(C(F)(F)F)c1-n1cc(-c2ccc(Cl)c(C(=O)NC3(C#N)CC3)c2F)cn1 [Ic-107]
[2]; application rate 500 g/ha
  efficacy in %: 100%
[3]; application rate 500 g/ha
  efficacy in %: 100%
[4]; application rate 500 g/ha
  efficacy in %: 100%
[5]; application rate 1 μg/cm^2
  efficacy (dead or moribund fleas): 100%
[5]; application rate 5 μg/cm^2
  efficacy (dead or moribund fleas): 100%

## Cn1nc(C(F)(F)C(F)(F)F)c(C(F)(F)F)c1-n1cc(-c2ccc(Cl)c(C(=O)NC3CCC3C[S+](C)[O-])c2)cn1 (centres unmarked) [Ic-123]
[1]; [6]
  logP: 3.09
[4]; application rate 100 g/ha
  efficacy in %: 100%

## Cn1nc(C(F)(F)C(F)(F)F)c(C(F)(F)F)c1-n1cc(-c2ccc(Cl)c(C(=O)NC3(C)CC3)c2)cn1 [Ic-200]
[1]; [6]
  logP: 4.12
[2]; application rate 500 g/ha
  efficacy in %: 100%
[3]; application rate 500 g/ha
  efficacy in %: 100%
[4]; application rate 500 g/ha
  efficacy in %: 100%

## Cn1nc(C(F)(F)C(F)(F)F)c(C(F)(F)F)c1-n1cnc(-c2ccc(Cl)c(C(=O)NCc3ccccc3)c2)c1 [Ib-1, N-Benzyl-2-chloro-5-{1-[1-methyl-3-(pentafluoroethyl)-4-(trifluoromethyl)-1H-pyrazol-5-yl]-1H-imidazol-4-yl}benzamide]
[1]
  chromatographic logP: 4
[2]; application rate 100 g/ha
  efficacy in %: 83%

## CC#CC(C)NC(=O)c1cc(-c2cnn(-c3c(C(F)(F)F)c(C(F)(F)C(F)(F)F)nn3C)c2)ccc1Cl (centres unmarked) [Ic-198]
[1]; [6]
  logP: 4.27
[2]; application rate 500 g/ha
  efficacy in %: 100%
[3]; application rate 500 g/ha
  efficacy in %: 100%
[4]; application rate 500 g/ha
  efficacy in %: 100%

## Cn1nc(C(F)(F)C(F)(F)F)c(C(F)(F)F)c1-n1cc(-c2ccc(Cl)c(C(=O)NC3CCC3S(C)(=O)=O)c2)cn1 (centres unmarked) [Ic-124]
[1]; [6]
  logP: 3.47
[2]; application rate 100 g/ha
  efficacy in %: 100%
[3]; application rate 100 g/ha
  efficacy in %: 100%
[4]; application rate 100 g/ha
  efficacy in %: 100%

## Cn1nc(C(F)(F)F)c(CO)c1-n1cc(-c2ccc(Cl)c(C(=O)NC3(C#N)CC3)c2)cn1 [Ic-104]
[1]; [6]
  logP: 2.13
[2]; application rate 100 g/ha
  efficacy in %: 100%
[4]; application rate 100 g/ha
  efficacy in %: 100%

## Cn1nc(C(F)(F)F)c(C(F)(F)F)c1-n1cc(-c2ccc(Cl)c(C(=O)NC3CC3F)c2)cn1 (centres unmarked) [Ic-177]
[1]; [6]
  logP: 3.41
[2]; application rate 100 g/ha
  efficacy in %: 100%
[3]; application rate 100 g/ha
  efficacy in %: 100%
[4]; application rate 100 g/ha
  efficacy in %: 100%

## Cn1nc(C(F)(F)C(F)(F)F)c(C(F)(F)F)c1-n1cc(-c2ccc(Cl)c(C(=O)NC3CCC3[S+](C)[O-])c2)cn1 (centres unmarked) [Ic-125]
[1]; [6]
  logP: 3.17
[2]; application rate 100 g/ha
  efficacy in %: 100%
[3]; application rate 100 g/ha
  efficacy in %: 83%
[4]; application rate 100 g/ha
  efficacy in %: 100%

## Cn1nc(C(F)(F)F)c(C(=O)NC2CC2)c1-n1cc(-c2ccc(Cl)c(C(=O)NC3(C#N)CC3)c2)cn1 [Ic-101]
[1]; [6]
  logP: 2.32

## Cn1nc(C(F)(F)F)c(C(=O)NC2CC2)c1-n1cc(-c2ccc(Cl)c(C(=O)NC3CC3)c2)cn1 [Ic-100]
[1]; [6]
  logP: 2.31

## Cn1nc(C(F)(F)C(F)(F)F)c(C(F)(F)F)c1-n1cnc(-c2cccc(C(=O)NC3(C#N)CC3)c2)n1 [Ie-7]
[1]; [7]
  logP: 3.46

## CSc1c(C(F)(F)C(F)(F)F)nn(C)c1-n1cc(-c2ccc(Cl)c(C(=O)NC3(C#N)CC3)c2)cn1 [Ic-194]
[1]; [6]
  logP: 3.56

## Cn1nc(C(F)(F)F)c(C=O)c1-n1cc(-c2ccc(Cl)c(C(=O)NC3(C#N)CC3)c2)cn1 [Ic-102]
[1]; [6]
  logP: 2.61

## Cn1nc(C(F)(F)F)c(CO)c1-n1cc(-c2ccc(Cl)c(C(=O)NC3CC3)c2)cn1 [Ic-69]
[1]; [6]
  logP: 2.15
[2]; application rate 500 g/ha
  efficacy in %: 83%
[4]; application rate 500 g/ha
  efficacy in %: 90%

## Cn1nc(C(F)(F)F)c(C=O)c1-n1cc(-c2ccc(Cl)c(C(=O)NC3CC3)c2)cn1 [Ic-52]
[1]; [6]
  logP: 2.67
[2]; application rate 500 g/ha
  efficacy in %: 100%

## Cn1nc(C(F)(F)C(F)(F)F)c(C(F)(F)F)c1-n1cc(-c2cc(C(=O)NC3CC3)cc3c2OC(F)(F)O3)cn1 [Ic-171]
[2]; application rate 500 g/ha
  efficacy in %: 100%
[3]; application rate 500 g/ha
  efficacy in %: 100%
[4]; application rate 500 g/ha
  efficacy in %: 90%

## Cn1nc(C(F)(F)C(F)(F)F)c(C(F)(F)F)c1-n1cnc(-c2cccc(C(=O)NC3(C(N)=S)CC3)c2)n1 [Ie-6]
[1]; [7]
  logP: 3.29

## Cn1nc(C(F)(F)C(F)(F)F)c(C(F)(F)F)c1-n1cc(-c2ccc(Cl)c(C(=O)NC3CC3)c2)c(N)n1 [Ic-192]
[1]; [6]
  logP: 3.35
[2]; application rate 100 g/ha
  efficacy in %: 100%

## Cn1nc(C(F)(F)C(F)(F)F)c(C(F)(F)F)c1-n1cnc(-c2cccc(C(=O)NCc3cccs3)c2)n1 [Ie-4]
[1]; [7]
  logP: 4.05
[2]; application rate 100 g/ha
  efficacy in %: 100%

## Cn1nc(C(F)(F)F)c(C#N)c1-n1cc(-c2ccc(Cl)c(C(=O)NC3CC3)c2)cn1 [Ic-30]
[1]; [6]
  logP: 2.97
[2]; application rate 100 g/ha
  efficacy in %: 100%

## Cc1c(-c2ccc(Cl)c(C(=O)NC3CC3)c2)c(C(F)(F)F)nn1-c1c(C(F)(F)F)c(C(F)(F)C(F)(F)F)nn1C [Ic-5]
[1]; [6]
  logP: 4.60
[2]; application rate 100 g/ha
  efficacy in %: 83%

## Cn1nc(C(F)(F)C(F)(F)F)c(C(F)(F)F)c1-n1cc(-c2cccc(C(=O)NC3(C#N)CC3)n2)cn1 [Ic-105]
[2]; application rate 500 g/ha
  efficacy in %: 100%
[3]; application rate 500 g/ha
  efficacy in %: 100%
[4]; application rate 500 g/ha
  efficacy in %: 90%

## Cn1nc(C(F)(F)C(F)(F)F)c(C(F)(F)F)c1-n1cnc(-c2cccc(C(=O)Nc3ccc(Cl)nc3)c2)n1 [Ie-5]
[1]; [7]
  logP: 4.24
[2]; application rate 100 g/ha
  efficacy in %: 100%

## Cn1nc(C(F)(F)C(F)(F)F)c(C(F)(F)F)c1-n1cc(-c2ccc(C(F)(F)F)c(C(=O)NC3(C#N)CC3)c2)cn1 [Ic-203]
[1]; [6]
  logP: 3.88
